Test system: LC3
Experiment: Promega Autophagy Assay System (HiBiT-tagged LC3 reporter, autophagy flux)
Format: cell-based
Conditions: LC3 reporter signal; decrease = increased autophagy
Excerpt: The Promega Augophagy Assay System uses LC3 to monitor the autophagy process. […] LgBiT is a […] recombinant protein derived from NanoLuc. When HiBiT associates with LgBiT, a strong luciferase activity is reconstituted. An increase in autophagy will accelerate the degradation of LC3 reporter which decreases the assay signal. In contrast, inhibition of autophagy causes the accumulation of LC3 which will increase the reporter levels and assay signal.

Structure (SMILES) | AC50 [µM]
N=c1c2c(-c3ccccc3)c(-c3ccccc3)n(CCc3ccccc3)c2ncn1CC1CCOC1 (centres unmarked) | 9.2
N=c1c2c(-c3ccccc3)c(-c3ccccc3)n(Cc3ccc(OC(F)(F)F)cc3)c2ncn1C1CCOCC1 | 9.2
N=c1c2c(-c3ccccc3)c(-c3ccccc3)n(Cc3ccc(OC(F)(F)F)cc3)c2ncn1CC1CCOCC1 | 9.2
N=c1c2c(-c3ccccc3)c(-c3ccccc3)n(Cc3ccc(OC(F)(F)F)cc3)c2ncn1CCCO | 9.2
N=c1c2c(-c3ccccc3)c(-c3ccccc3)n(Cc3ccccc3)c2ncn1CCCCCO | 10.3
CN(C)CCn1cnc2c(c(-c3ccccc3)c(-c3ccccc3)n2Cc2ccccc2)c1=N | 10.3
N=c1c2c(-c3ccccc3)c(-c3ccccc3)n(CCc3ccccc3)c2ncn1CCCCO | 10.3
COc1ccc(Cn2c(-c3ccccc3)c(-c3ccccc3)c3c(=N)n(CCCCO)cnc32)cc1 | 10.3
N=c1c2c(-c3ccccc3)c(-c3ccccc3)n(CCc3ccccc3)c2ncn1CC1CCOCC1 | 10.3
N=c1c2c(-c3ccccc3)c(-c3ccccc3)n(Cc3ccccc3)c2ncn1CC1CCOCC1 | 10.3
N=c1c2c(-c3ccccc3)c(-c3ccccc3)n(CC3CC3)c2ncn1CCCO | 10.3
N=c1c2c(-c3ccccc3)c(-c3ccccc3)n(CC3CCCCC3)c2ncn1C1CCOCC1 | 10.3
COCCn1cnc2c(c(-c3ccccc3)cn2Cc2ccccc2)c1=N | 11.6
N=c1c2c(-c3ccccc3)c(-c3ccccc3)n(Cc3ccccc3)c2ncn1CCCCO | 11.6
CC[Si](CC)(CC)OCCCn1cnc2c(c(-c3ccccc3)cn2Cc2ccc(Br)cc2)c1=N | 13
COCCn1cnc2c(c(-c3ccccc3)c(-c3ccccc3)n2Cc2ccccc2)c1=N | 13
N=c1c2c(-c3ccccc3)c(-c3ccccc3)n(Cc3ccccc3)c2ncn1CCN | 13
N=c1c2c(-c3ccccc3)c(-c3ccccc3)n(CCc3ccccc3)c2ncn1CCCCCO | 13
CCOC(CCCn1cnc2c(c(-c3ccccc3)c(-c3ccccc3)n2CCc2ccccc2)c1=N)OCC | 13
COC(=O)c1cccc(Cn2cnc3c(c(-c4ccccc4)c(-c4ccccc4)n3CCc3ccccc3)c2=N)c1 | 13
N=c1c2c(-c3ccccc3)c(-c3ccccc3)n(Cc3ccccc3)c2ncn1C[C@@H]1CCCC[C@H]1O | 13
COc1ccc(-c2c(-c3ccc(OC)cc3)n(Cc3ccccc3)c3ncn([C@H]4CC[C@H](OC)CC4)c(=N)c23)cc1 | 13

Structure (SMILES) | AC50 [µM]
N=c1c2c(-c3ccccc3)cn(Cc3ccccc3)c2ncn1[C@@H]1CCCC[C@H]1N | 14.6
N=c1c2c(-c3ccccc3)c(-c3ccccc3)n(Cc3ccccc3)c2ncn1CC1CCCO1 (centres unmarked) | 14.6
N=c1c2c(-c3ccccc3)c(-c3ccccc3)n(CC3CCCCC3)c2ncn1CC1CCOCC1 | 14.6
N=c1c2c(-c3ccccc3)cn(Cc3ccc(Br)cc3)c2ncn1CCCN1CCN(c2ccccc2)CC1 | 16.4
N=c1c2c(-c3ccccc3)cn(Cc3ccccc3)c2ncn1C1CCC(O)CC1 (centres unmarked) | 16.4
COc1ccc(CCn2cnc3c(c(-c4ccccc4)cn3Cc3ccccc3)c2=N)cc1OC | 16.4
N=c1c2c(-c3ccccc3)cn(Cc3ccccc3)c2ncn1Cc1ccco1 | 16.4
N=c1c2c(-c3ccccc3)c(-c3ccccc3)n(Cc3ccccc3)c2ncn1Cc1ccc2c(c1)OCO2 | 16.4
COc1ccc(Cn2c(-c3ccccc3)c(-c3ccccc3)c3c(=N)n(CC(OC)OC)cnc32)cc1 | 16.4
N=c1c2c(-c3ccccc3)c(-c3ccccc3)n(CC3CCCCC3)c2ncn1[C@H]1CC[C@H](O)CC1 | 16.4
N=c1c2c(-c3ccc4c(c3)OCO4)c(-c3ccc4c(c3)OCO4)n(Cc3ccccc3)c2ncn1C1CCOCC1 | 18.4
N=c1c2c(-c3ccccc3)c(-c3ccccc3)n(CCc3ccccc3)c2ncn1C[C@@H]1CCCC[C@H]1O | 18.4
N=c1c2c3c(n(CCc4ccccc4)c2ncn1CCCO)CCCC3 | 18.4
N=c1c2c(-c3ccccc3)c(-c3ccccc3)n(Cc3ccccc3)c2ncn1CCNc1ccncc1 | 20.6
CCOC(CCCn1cnc2c(c(-c3ccccc3)c(-c3ccccc3)n2Cc2ccccc2)c1=N)OCC | 20.6
COCCn1cnc2c(c(-c3ccccc3)c(-c3ccccc3)n2CCc2ccccc2)c1=N | 20.6
N=c1c2c(-c3ccccc3)c(-c3ccccc3)n(CCc3ccccc3)c2ncn1[C@H](CO)Cc1ccccc1 | 20.6
CCOC(CCCn1cnc2c(c(-c3ccccc3)c(-c3ccccc3)n2Cc2ccc(OC)cc2)c1=N)OCC | 20.6
COc1ccc(Cn2c(-c3ccccc3)c(-c3ccccc3)c3c(=N)n([C@H](C)[C@@H](O)c4ccccc4)cnc32)cc1 | 20.6
COc1ccc(Cn2c(-c3ccccc3)c(-c3ccccc3)c3c(=N)n(CC4CCCO4)cnc32)cc1 (centres unmarked) | 20.6
COc1ccc(Cn2c(-c3ccccc3)c(-c3ccccc3)c3c(=N)n(N4CCOCC4)cnc32)cc1 | 20.6
N=c1c2c(-c3ccccc3)c(-c3ccccc3)n(Cc3ccccc3)c2ncn1CC1CCOC1 (centres unmarked) | 20.6

Structure (SMILES) | AC50 [µM]
COc1ccc(-c2c(-c3ccc(OC)cc3)n(Cc3ccccc3)c3ncn(CCCO)c(=N)c23)cc1 | 20.6
N=c1c2c(-c3ccccc3)c(-c3ccccc3)n(CC3CC3)c2ncn1CC1CCOCC1 | 20.6
COc1ccc(-c2c(-c3ccc(OC)cc3)n(Cc3ccccc3)c3ncn(CC4CCOCC4)c(=N)c23)cc1 | 20.6
COc1ccc(-c2c(-c3ccc(OC)cc3)n(Cc3ccccc3)c3ncn([C@@H]4CCCC[C@H]4CO)c(=N)c23)cc1 | 20.6
Cc1ccc(-c2c(C(=O)CF)n(CCCO)c3ncnc(N)c23)cc1 | 20.6
N=c1c2c(-c3ccccc3)cn(Cc3ccccc3)c2ncn1CCCN1CCN(c2ccccc2)CC1 | 23.1
N=c1c2c(-c3ccccc3)c(-c3ccccc3)n(Cc3ccccc3)c2ncn1[C@H](CO)Cc1ccccc1 | 23.1
COC(Cn1cnc2c(c(-c3ccccc3)c(-c3ccccc3)n2CCc2ccccc2)c1=N)OC | 23.1
COc1ccc(CCn2cnc3c(c(-c4ccccc4)c(-c4ccccc4)n3Cc3ccccc3)c2=N)cc1OC | 23.1
N=c1c2c(-c3ccccc3)c(-c3ccccc3)n(CCc3ccccc3)c2ncn1CC1CCCO1 (centres unmarked) | 23.1
COCCn1cnc2c(c(-c3ccccc3)c(-c3ccccc3)n2Cc2ccc(OC)cc2)c1=N | 23.1
COc1ccc(-c2c(-c3ccc(OC)cc3)n(Cc3ccccc3)c3ncn(C4CCOCC4)c(=N)c23)cc1 | 23.1
Cc1c(C)n(Cc2ccccc2)c2ncn(C3CCOCC3)c(=N)c12 | 23.1
Cc1ccc(-c2c(C(=O)CCl)n(CCCO)c3ncnc(N)c23)cc1 | 23.1
N=c1c2c(-c3ccccc3)cn(Cc3ccc(Br)cc3)c2ncn1CCCCO | 25.9
N=c1c2c(-c3ccccc3)cn(Cc3ccccc3)c2ncn1[C@H](CO)Cc1ccccc1 | 25.9
N=c1c2c(-c3ccccc3)cn(Cc3ccccc3)c2ncn1C(CO)(CO)CO | 29.1
N=c1c2c(-c3ccccc3)c(-c3ccccc3)n(Cc3ccccc3)c2ncn1CCCN1CCN(c2ccccc2)CC1 | 29.1
CN(C)CCCn1cnc2c(c(-c3ccccc3)c(-c3ccccc3)n2Cc2ccccc2)c1=N | 29.1
C[C@H]([C@@H](O)c1ccccc1)n1cnc2c(c(-c3ccccc3)c(-c3ccccc3)n2Cc2ccccc2)c1=N | 29.1
N=c1c2c(-c3ccccc3)c(-c3ccccc3)n(Cc3ccccc3)c2ncn1C1CCN(Cc2ccccc2)CC1 | 29.1

— patent publication US11241436B2, “Autophagy inducers for treatment of CNS conditions” (Northwestern University, priority 2017, dated 2022)
